We go through 25 molecules from PubChem BioAssay (NCI).

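Method: 48-hour compound exposure of cells in 96-well plates, five concentrations, linear interpolation of endpoints. GI50 = concentration required for 50% inhibition of growth. The concentration for full growth arrest is given as TGI.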

One experiment deals with U251 CNS. The experiment is described as follows: growth of human tumour cells (NCI), 48 h.
Molecule `C1CN2N3CCCC23C1` (centres undefined) came in with a TGI above 100 µM.
In turn, `Cc1cccc(C(C)(C)C)c1NC(=O)C(=O)Cc1nc2ccccc2s1` yielded a TGI above 100 µM.
On the same count and under the same terms, as for `CC(=O)OCCc1cccnc1/C=N/O`, the figure is above 100 µM; as for `CN(C)c1ccc(/C=C2\C[N+](C)(C)C/C(=C\c3ccc(N(C)C)cc3)C2=O)cc1`, 25 µM; as for `O=C1CC[C@H]2CNC(=O)C[C@H]2C1`, above 100 µM.
In turn, `C#CC(C)(C)Oc1cc(O)c2c(=O)c3ccccc3n(C)c2c1` registered a TGI above 100 µM.
Consider `CN1CCCNCCN(CCc2ccccn2)CCCN(C)CC1`, for which the TGI was above 100 µM.
`C[C@]12CCC(=O)C=C1CC[C@@H]1C2CC[C@]2(C)NC(=O)C(C#N)CC12` (some centres undefined): the TGI was above 100 µM.
The same measure, in the same setting: as for `COC(=O)c1c(OC)cccc1C(=O)O`, the figure is above 100 µM; as for `O=[N+]([O-])c1ccc(NSc2ccccc2)cc1`, above 100 µM.
For `Cc1c(C(=O)/C=C/c2cccc3ccccc23)[n+](=O)c2ccccc2n1[O-]`, the TGI was found to be 29.1 µM.
On the same count and under the same terms, as for `CC(=O)/C=C/c1cccc(N=S)c1`, the figure is 20.8 µM.
Take `O=C(Nc1ccccc1[N+](=O)[O-])c1ccccc1`: the TGI is above 100 µM.
Still for that read-out and setting: as for `O=C1Oc2cc3c(c4cccc1c24)OCN(c1ccc(Cl)cc1)C3`, the figure is above 79.5 µM.
Still for that read-out and setting: as for `COc1cc2c(cc1OC)C1C=NC(C(=O)O)(C2)c2ccccc21` (centres undefined), the figure is above 100 µM.
Turning to `O=C1CSC(N2CCN(c3cccc(Cl)c3)CC2)=N1`, the GI50 was above 100 µM and the TGI is above 100 µM.
Turning to `Cc1cc(C)nc(NS(=O)(=O)c2ccc(NC(=O)c3cccc4c(=O)c5ccccc5[nH]c34)cc2)n1`, the TGI came out at 32.4 µM.
Consider `CCN1CCN(c2nc(NCCNc3ccnc4cc(Cl)ccc34)c3ccccc3n2)CC1`, for which the GI50 is 2.28 µM and the TGI turned out to be 10.1 µM.
For `COc1ccccc1NC(=O)c1ccc(/C=C/C(=O)c2nccn2C)cc1`, the GI50 was 0.434 µM and the TGI was 1.02 µM.
Regarding `CCCCCCCCCCCCCCC1OC(=O)c2ccccc21` (centres undefined), the TGI is above 100 µM.
Regarding `CN(C)CCNC(=O)c1cccc2nc3c(Cl)cccc3nc12`, the TGI was 30.5 µM.
Regarding `Cn1cc(C2=C(c3ccc(OC[C@@H](O)CO)cc3)C(=O)NC2=O)c2ccccc21`, the GI50 is above 25 µM and the TGI was above 25 µM.
Consider `O=C1c2ccccc2-c2c1c1cc3c(cc1c(=O)n2CCCCl)OCO3`, for which the GI50 is 22.8 µM and the TGI was found to be 67.4 µM.
`CC(C)(C)C1=NC(S)NC(CCC(=O)Nc2ccccc2[N+](=O)[O-])=C1` (centres undefined) had a TGI above 100 µM.

The subject of a further experiment is SW-620 colon. Put plainly: growth of human tumour cells (NCI), 48 h.
Consider `C1CN2N3CCCC23C1` (centres undefined), for which the TGI is above 100 µM.
As for `Cc1cccc(C(C)(C)C)c1NC(=O)C(=O)Cc1nc2ccccc2s1`, the TGI was above 100 µM.
`CC(=O)OCCc1cccnc1/C=N/O` came in with a TGI above 100 µM.
For `CN(C)c1ccc(/C=C2\C[N+](C)(C)C/C(=C\c3ccc(N(C)C)cc3)C2=O)cc1`, the TGI came out at 43.2 µM.
Same read-out and setting: with `O=C1CC[C@H]2CNC(=O)C[C@H]2C1` the figure was above 100 µM; with `CN1CCCNCCN(CCc2ccccn2)CCCN(C)CC1`, above 53.6 µM; with `C[C@]12CCC(=O)C=C1CC[C@@H]1C2CC[C@]2(C)NC(=O)C(C#N)CC12` (some centres undefined), above 100 µM.
For `COC(=O)c1c(OC)cccc1C(=O)O`, the TGI is above 100 µM.
Still for that read-out and setting: with `O=[N+]([O-])c1ccc(NSc2ccccc2)cc1` the figure was above 100 µM; with `Cc1c(C(=O)/C=C/c2cccc3ccccc23)[n+](=O)c2ccccc2n1[O-]`, 22.7 µM.
For the molecule `CC(=O)/C=C/c1cccc(N=S)c1`, the TGI stood at 6.68 µM.
On the same count and under the same terms, as for `O=C1NC(=O)C2C(=O)NC(=O)C1C2(c1ccccc1)c1ccc(Cl)cc1` (centres undefined), the figure is above 100 µM.
Same read-out and setting: with `O=C(Nc1ccccc1[N+](=O)[O-])c1ccccc1` the figure was above 100 µM; with `O=C1Oc2cc3c(c4cccc1c24)OCN(c1ccc(Cl)cc1)C3`, above 55.3 µM; with `COc1cc2c(cc1OC)C1C=NC(C(=O)O)(C2)c2ccccc21` (centres undefined), above 100 µM.
`O=C1CSC(N2CCN(c3cccc(Cl)c3)CC2)=N1`: the GI50 was above 100 µM and the TGI was above 100 µM.
`Cc1cc(C)nc(NS(=O)(=O)c2ccc(NC(=O)c3cccc4c(=O)c5ccccc5[nH]c34)cc2)n1`: the TGI came out at 55.5 µM.
Regarding `CCN1CCN(c2nc(NCCNc3ccnc4cc(Cl)ccc34)c3ccccc3n2)CC1`, the GI50 was 0.707 µM and the TGI worked out at 5.14 µM.
For `COc1ccccc1NC(=O)c1ccc(/C=C/C(=O)c2nccn2C)cc1`, in that order: 0.473 µM and 1.22 µM.
As for `CCCCCCCCCCCCCCC1OC(=O)c2ccccc21` (centres undefined), the TGI was above 100 µM.
Still for that read-out and setting: with `CN(C)CCNC(=O)c1cccc2nc3c(Cl)cccc3nc12` the figure was above 40.4 µM.
For `Cn1cc(C2=C(c3ccc(OC[C@@H](O)CO)cc3)C(=O)NC2=O)c2ccccc21`, the GI50 is above 25 µM and the TGI is above 25 µM.
With `O=C1c2ccccc2-c2c1c1cc3c(cc1c(=O)n2CCCCl)OCO3`, the GI50 is 94.5 µM and the TGI is above 100 µM.
In the case of `CC(C)(C)C1=NC(S)NC(CCC(=O)Nc2ccccc2[N+](=O)[O-])=C1` (centres undefined), the TGI is above 100 µM.

The subject of the next experiment is ACHN renal. Put plainly: growth of human tumour cells (NCI), 48 h.
In turn, `C1CN2N3CCCC23C1` (centres undefined) gave a TGI above 100 µM.
`Cc1cccc(C(C)(C)C)c1NC(=O)C(=O)Cc1nc2ccccc2s1` yielded a TGI above 100 µM.
The same measure, in the same setting: as for `CC(=O)OCCc1cccnc1/C=N/O`, the figure is above 100 µM; as for `CN(C)c1ccc(/C=C2\C[N+](C)(C)C/C(=C\c3ccc(N(C)C)cc3)C2=O)cc1`, above 100 µM.
Same read-out and setting: with `C#CC(C)(C)Oc1cc(O)c2c(=O)c3ccccc3n(C)c2c1` the figure was above 100 µM; with `CN1CCCNCCN(CCc2ccccn2)CCCN(C)CC1`, above 100 µM.
Still for that read-out and setting: with `C[C@]12CCC(=O)C=C1CC[C@@H]1C2CC[C@]2(C)NC(=O)C(C#N)CC12` (some centres undefined) the figure was above 100 µM; with `COC(=O)c1c(OC)cccc1C(=O)O`, above 100 µM.
As for `O=[N+]([O-])c1ccc(NSc2ccccc2)cc1`, the TGI was above 100 µM.
Molecule `Cc1c(C(=O)/C=C/c2cccc3ccccc23)[n+](=O)c2ccccc2n1[O-]` registered a TGI of 29.4 µM.
The same measure, in the same setting: as for `CC(=O)/C=C/c1cccc(N=S)c1`, the figure is above 53.3 µM.
